Experimental data reported in patent US7423015B1, “Antihelminthic drugs as a treatment for hyperproliferative diseases” (Board of Regents, The University of Texas System, priority 2001, dated 2008).

Legend:
H460 NSCLC cells = test: Cell cycle profiles by FACS, MZ and vinorelbine; assay type: cell-based, human; details: sub-therapeutic low dose
Description: FIG. 10. MZ Enhances activity of anti-mictotic drugs in H460 NSCLC cells. H460 cells were treated with low dose of MZ or Vinorelbine. Cell cycle profiles indicating G1/S G2-Mphases were analyzed by FACS.
The doses of MZ and vinorelbine were chosen to be “sub-therapeutic”. […] Thus, in H460 NSCLC cells mebendazole enhances the activity of anti-mitotic drugs.

[1] = system: A549 metastatic lung colonies; test: Lung metastases in vivo after tail vein injection; set-up: species or system female nude mice; details: paclitaxel alone, other experiments
Description: To establish lung metastases, female nude mice were injected intravenously via tail vein with 10^6 A549 tumor cells suspended in […] of sterile PBS. Six days later, mice were divided into two groups of 5 mice each and treated. Group 1 received no treatment and group 2 received the experimental MZ drug orally at 1 mg of drug (100 μl) twice a week for 3 weeks. After 3 weeks, animals were euthanized by CO2 inhalation. Lungs from each of the mice from the two groups were injected intra-tracheally with India ink and fixed in Feketes solution. The therapeutic effect of MZ treatment was determined by counting the number of metastatic tumors in each lung under a dissecting microscope without knowledge of the treatment groups. The experiments were performed three times and data analyzed and interpreted as statistically significant if the p value was <0.05 by the Mann-Whitney rank-sum test.
Next, the inventors asked whether treatment with MZ would inhibit the growth of human metastatic lung cancer cells in vivo. About 300 metastatic colonies appeared on untreated mice 21 days after A549 cell injection into the tail vein (FIG. 6). This technique was reproducible as the totals blindly counted by two investigators differed by less than 10%. This experiment was performed three times with similar results. The oral administration of […] MZ reduced mean colony count to 80% of the mean value for controls (P<0.0001).

Row | Structure (SMILES) | apoptosis under monotherapy (H460 NSCLC cells) | colony formation [1]
1 | CCC1=C[C@@H]2CN(C1)Cc1c([nH]c3ccccc13)[C@@](C(=O)OC)(c1cc3c(cc1OC)N(C)[C@H]1[C@@](O)(C(=O)OC)[C@H](OC(C)=O)[C@]4(CC)C=CCN5CC[C@]31[C@@H]54)C2 [Vinorelbine] | No apoptosis | 
2 | CC(=O)O[C@H]1C(=O)[C@@]2(C)[C@H]([C@H](OC(=O)c3ccccc3)[C@]3(O)C[C@H](OC(=O)[C@H](O)[C@@H](NC(=O)c4ccccc4)c4ccccc4)C(C)=C1C3(C)C)[C@]1(OC(C)=O)CO[C@@H]1C[C@@H]2O [paclitaxel] |  | no significant reduction
